From patent US20160058712A1, “3-HYDROXYPTEROSTILBENE AND THERAPEUTIC APPLICATIONS THEREOF” (priority 2014, published 2016)

How the values were obtained:
COLO 205 cells = experiment: Mitochondrial membrane potential by DiOC6 flow cytometry; format: cell-based, human; conditions: COLO 205, 50 μM, 15 min; shifted from 224
Protocol: For mitochondrial membrane potential and ROS production, COLO 205 cells were treated as described under Example III for 15 min, and then DiOC6 [3,3′-dihexyloxacarbocyanine iodide] (40 nM) or DCFHDA [2′,7′-dichlorodihydrofluorescein diacetate] (20 μM) was added to the medium for a further 30 min at 37° C. After washing with PBS, the fluorescence intensity was determined by FAC Scan cytometry. The DiOC6 fluorescence intensity shifted to the left from 224 to 117 and 75 in pterostilbene and 3-HPT induced apoptotic COLO 205 cells, respectively. […] The role of ROS in the induction of apoptosis is well recognized. […] The imbalance of ROS concentrations could play an important role as an early mediator in 3-HPT induced apoptosis.

[1] = tested on: LC3 I/II in COLO 205 cells; experiment: Western blotting of LC3 I/II expression; format: cell-based, human; conditions: COLO 205, 50 μM, 24 hours, compared to pterostilbene
Protocol: Western blotting analysis was performed as follows. The total proteins of COLO 205 cells were extracted via addition of gold lysis buffer (50 mM TrisHCl, pH 7.4; 1 mM NaF; 150 mM NaCl; 1 mM EGTA; 1 mM phenylmethanesulfonyl fluoride; 1% NP40; and 10 μg/mL leupeptin) to the cell pellets on ice for 30 min, followed by centrifugation at 10,000×g for 30 min at 4° C. The total proteins were measured by BioRad Protein Assay (BioRad Laboratories, Munich, Germany). The samples (50 μg of protein) were mixed with 5× sample buffer containing 0.3 M TrisHCl (pH 6.8), 25% 2mercaptoethanol, 12% sodium dodecyl sulfate (SDS), 25 mM EDTA, 20% glycerol, and 0.1% bromophenol blue. The mixtures were boiled at 100° C. for 5 min and were subjected to 10% SDS polyacrylamide minigels at a constant current of 20 mA. Electrophoresis was then carried out on SDSpolyacrylaniide gels. […] The transferred proteins were visualized with an enhanced chemi-luminescence detection kit (ECL Amersham Pharmacia Biotech, Buckinghamshire, UK). The densities of the bands were quantified with a computer densitometer (AlphaImager™ 2200 System Alpha densitometer. Innotech Corporation, San Leandro, Calif.). […]
COLO 205 cells were treated with 50 μM pterostilbene or 3-hydroxypterostilbene for 24 hours. Cell lysates were prepared after 24 h treatment and the protein expression of LC3 were analyzed by Western blotting.

[2] = tested on: COLO 205 xenograft tumors; experiment: COLO 205 xenograft model; format: in vivo
Protocol: Male Balb/c nude mice at 3-4 weeks old (weighing 16-18 g) were obtained from the BioLASCO Experimental Animal Center (BioLASCO, Taipei, Taiwan). All animals were maintained in pathogen free sterile isolators and in a controlled atmosphere (25±1° C. at 50% relative humidity) and with a 12 h light-12 h dark cycle according to institutional guidelines. Animals were fed with standard AIN76 diet and all food, water, caging, and bedding were sterilized prior to use. Animals had free access to food and water at all times. Food cups were replenished with fresh diet every day. All animal experimental protocol used in this study was approved by Institutional Animal Care and Use Committee of the National Kaohsiung Marine University (IACUC, NKMU, #099AAA902, Validity dates: Jan. 1, 2009 Jul. 31, 2012). After 1 week of acclimation, colon cancer COLO 205 cells (5×10^6) in 0.2 mL PBS were injected subcutaneously between the scapulae of each nude mouse. After transplantation, tumor size was measured using calipers, and the tumor volume was estimated according to the following formula: tumor volume […]=L×W2/2, where L is the length and W is the width. Once tumors reached a mean size of […], mice were randomly divided into three groups (6 animals/group). Mice were i.p. injection with pterostilbene or 3-hydroxypterostilbene (10 mg/kg/d, respectively) for 15 days, while control animals were received injection of corn oil. The diet intake and body weight of each animal was monitored every day. The tumor volume was assessed and recorded every 5 days using caliper measurements. After 15 days, the mice were sacrificed by […] and the liver, kidneys, spleen and solid tumors were excised immediately and weighed. Average tumor volume and tumor weight of each group were represent the mean±standard deviation (SD). Average tumor volumes were recorded during the treatment and average tumor weights were measured at the end of experiment. Six samples were analyzed in each group, and values represent the mean±SD. *P<0.05 and **P<0.01, compared with control group. #P<0.05, compared with pterostilbene treated group. The tumor tissues were cut into several portion for western blot analysis or stored at −80° C. […] Furthermore, in mice receiving these treatment regimens, no gross signs of toxicity were observed during visible inspections of general appearance and microscopic examinations of individual organs. • 2.

PC-3 cell lines = experiment: Microscopic morphological changes of PC-3 cells; format: cell-based, human; conditions: PC-3, 2.5-20 μM, 100× phase contrast
Protocol: The morphological changes evident in PC-3 cell lines treated with graded concentrations of 3-HPT (2.5 μM, 5 μM, 10 μM and 20 μM of 3-HPT) as viewed microscopically (100× under inverted stage microscope equipped with phase contrast) indicated cell cytotoxicity starting at a concentration of 5 μM 3-HPT (FIG. 2).

PC-3 cells [3] = experiment: DNA fragmentation by agarose gel electrophoresis; format: cell-based, human; conditions: PC-3, 0-20 μM, 48 hr, 2.0% agarose gel
[4] = tested on: Bcl-xL and Bax in PC-3 cells; experiment: Western blot of Bcl-xL and Bax expression; format: cell-based, human; conditions: PC-3, 10 μM, different time intervals
PC-3 cells [5] = experiment: Mitochondrial membrane potential by DiOC6 flow cytometry in PC-3 cells; format: cell-based, human; conditions: PC-3, 10 and 20 μM, 48 hr
Protocol: As a measure of down-stream check points in the mammalian apoptotic pathways, the potential of 3-HPT to cause mitochondrial dysfunction and activation of the caspase pathways was further evaluated. PC-3 cells were cultured in serum-free RPMI containing 0, 2.5, 5, 10, or 20 μM of 3-HPT for 48 hr, respectively. Then, cells were stained with DiOC6 and analyzed by flow cytometry.

COc1cc(/C=C/c2ccc(O)c(O)c2)cc(OC)c1 [3-hydroxypterostilbene, 3,4-dihydroxy-3′,5′-dimethoxy-trans-stilbene]
DiOC6 fluorescence intensity (mitochondrial membrane potential) (COLO 205 cells): 75
protein LC3 I/II expression [1]: Enhanced protein LC3 I/II expression
protein levels of COX2, MMP9, VEGF, cyclin D1, and procaspase 3 in tumors ([2]; 10 mg/kg, Western blot, compared to the pterostilbene group): markedly decreased
side effects or toxicity (body and organ weights, gross signs) ([2]; 10 mg/kg/d i.p., 15 days, nude mice): no noticeable side effects or toxicity
tumor volume ([2]; 10 mg/kg/d i.p., after 15 days): significantly inhibited in comparison with the pterostilbene treated mice
tumor weight ([2]; 10 mg/kg/d i.p., end of experiment): strongly inhibited
concentration at which cell cytotoxicity starts (morphological changes) (PC-3 cell lines): 5 μM
DNA fragmentation (PC-3 cells [3]): indicated apoptotic cells death
Bax (pro-apoptotic protein) expression [4]: upregulates
Bcl-xL (anti-apoptotic protein) expression [4]: clearly down-regulates
mitochondrial membrane potential (PC-3 cells [5]): significant reduction
